The source of these data is US20240368133A1, “Compounds for the Treatment of Pain, in Particular, Neuropathic Pain, and/or Other Diseases or Disorders that are Associated with AT2R and/or AT2R Mediated Signaling” (Confo Therapeutics N.V., priority 2021, published 2024).

Assay [1] deals with human AT2R fused to Cb23 (Homo sapiens, UniProt P50052). Nature of the assay: Radioligand binding assay, displacement of 125I-[Sar1, Ile8]-Angiotensin II, hAT2R Cb23. Conditions: displacement of 125I-[Sar1, Ile8]-Angiotensin II, human AT2R fused to Cb23, HEK-293 cell membrane preparations; read-out: Binding affinity on hAT2R_Cb23 IC50. A digest of the protocol: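 Membranes from HEK-293 cells expressing human AT2R fused to Cb23 were incubated with 0.05 nM 125I-[Sar1, Ile8]-Angiotensin II in 100 μL buffer (50 mM Tris, 5 mM MgCl2, 1 mM EDTA, 0.1% BSA, pH 7.4) for one hour at 25° C. Ligands were tested as eight-point dose-response curves in duplicate, with C21 and Angiotensin II as references.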
Chain of human AT2R fused to Cb23 (P50052 whole entry, looked up, the tested form may be a part): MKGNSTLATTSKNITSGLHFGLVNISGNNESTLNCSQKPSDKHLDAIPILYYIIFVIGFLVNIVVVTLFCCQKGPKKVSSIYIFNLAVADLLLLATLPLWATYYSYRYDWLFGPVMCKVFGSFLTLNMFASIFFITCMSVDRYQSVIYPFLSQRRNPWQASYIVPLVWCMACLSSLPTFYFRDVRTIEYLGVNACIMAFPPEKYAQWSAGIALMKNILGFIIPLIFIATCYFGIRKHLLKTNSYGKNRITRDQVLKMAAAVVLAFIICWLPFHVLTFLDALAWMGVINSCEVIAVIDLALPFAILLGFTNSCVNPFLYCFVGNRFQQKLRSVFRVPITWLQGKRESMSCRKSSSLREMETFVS

Assay [2] deals with human AT1R (Homo sapiens (Human), UniProt P30556). Nature of the assay: Counterscreen radioligand binding assay, displacement of 125I-[Sar1, Ile8]-Angiotensin II, hAT1R WT. Conditions: 125I-[Sar1, Ile8]-Ang II, semi-quantitative score; for inhibition at 1 µM: compound at 1 μM, read-out: % Displaced radioligand at 1 μM; for inhibition at 10 µM: compound at 10 μM, read-out: % Displaced radioligand at 10 μM. A digest of the protocol:
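Compounds displaced 0.05 nM 125I-[Sar1, Ile8]-Ang II from human AT1R in HEK-293 membranes (1 h, 25° C; Tris/MgCl2/EDTA/BSA buffer, pH 7.4). Readout was filtration and scintillation counting, with non-specific binding set by 10 μM [Sar1]-Ang II. Values are % displacement at 1 μM and […], or IC50 from eight-point four-parameter fits.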

Chain of human AT1R (P30556 whole entry): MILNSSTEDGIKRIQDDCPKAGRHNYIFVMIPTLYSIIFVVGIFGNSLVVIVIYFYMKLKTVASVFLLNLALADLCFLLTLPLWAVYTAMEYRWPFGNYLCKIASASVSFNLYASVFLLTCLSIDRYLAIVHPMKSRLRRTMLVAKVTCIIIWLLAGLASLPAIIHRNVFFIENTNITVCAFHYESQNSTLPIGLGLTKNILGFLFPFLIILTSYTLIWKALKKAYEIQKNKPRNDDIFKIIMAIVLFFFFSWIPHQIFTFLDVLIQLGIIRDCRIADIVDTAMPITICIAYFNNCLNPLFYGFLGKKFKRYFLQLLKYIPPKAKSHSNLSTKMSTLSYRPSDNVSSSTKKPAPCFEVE

Turning to `CC(C)Cc1cc(F)c(-c2nn[nH]n2)c(N2CCN(Cc3cccnn3)C(C(C)C)C2)c1` (stereo not drawn) [Compound A-179, 3-[[4-[3-fluoro-5-isobutyl-2-(2H-tetrazol-5-yl)phenyl]-2-isopropyl-piperazin-1-yl]methyl]pyridazine], the IC50 in assay [1] is 953 nM. Besides, in assay [2], the inhibition at 1 µM is less than 30% and the inhibition at 10 µM is less than 30%.

In the case of `CC(C)Cc1cc(F)c(-c2nn[nH]n2)c(N2CCN(Cc3cccnn3)CC2C)c1` (stereo not drawn) [Compound A-180, 3-[[4-[3-fluoro-5-isobutyl-2-(2H-tetrazol-5-yl)phenyl]-3-methyl-piperazin-1-yl]methyl]pyridazine], in assay [1], the IC50 was found to be 3.95 nM. For the same molecule, in assay [2], the inhibition at 1 µM is less than 30% and the inhibition at 10 µM is less than 30%.

As for `CC(C)Cc1cc(F)c(-c2nn[nH]n2)c(N2CCN(Cc3cccnn3)C(C)(C)C2)c1` [Compound A-182, 3-[[4-[3-fluoro-5-isobutyl-2-(2H-tetrazol-5-yl)phenyl]-2,2-dimethyl-piperazin-1-yl]methyl]pyridazine], the IC50 in assay [1] worked out at 18.6 nM. Further, in assay [2], the inhibition at 1 µM is less than 30% and the inhibition at 10 µM was less than 30%.

Regarding `CC(C)Cc1cc(F)c(-c2nn[nH]n2)c(N2C[C@@H](C)N(Cc3cccnn3)[C@H](C)C2)c1` [Compound A-185, 3-[[(2R,6R)-4-[3-fluoro-5-isobutyl-2-(2H-tetrazol-5-yl)-phenyl]-2,6-dimeth-yl-piperazin-1-yl]-methyl]pyridazine], the IC50 in assay [1] was 69.6 nM. Moreover, in assay [2], the inhibition at 1 µM was less than 30% and the inhibition at 10 µM is less than 30%.

On to `CC(C)Cc1cc(F)c(-c2nn[nH]n2)c(N2C[C@@H](C)N(Cc3cccnn3)[C@@H](C)C2)c1` [Compound A-186, 3-[[(2S,6R)-4-[3-fluoro-5-isobutyl-2-(2H-tetrazol-5-yl)-phenyl]-2,6-dimeth-yl-piperazin-1-yl]-methyl]pyridazine], for which the IC50 in assay [1] is 18.3 nM. Besides, in assay [2], the inhibition at 1 µM is less than 30% and the inhibition at 10 µM was less than 30%.

In the case of `CC(C)Cc1cc(F)c(-c2nn[nH]n2)c(N2C[C@H](C)N(Cc3cccnn3)[C@@H](C)C2)c1` [Compound A-187, 3-[[(2S,6S)-4-[3-fluoro-5-isobutyl-2-(2H-tetrazol-5-yl)-phenyl]-2,6-dimeth-yl-piperazin-1-yl]-methyl]pyridazine], the IC50 in assay [1] was 7.26 nM. In addition, in assay [2], the inhibition at 1 µM is less than 30% and the inhibition at 10 µM was less than 30%.

With `CC(C)Cc1cc(F)c(-c2nn[nH]n2)c(N2CCN(Cc3cccnn3)C(C)C2C)c1` (stereo not drawn) [Compound A-188, 3-[[4-[3-fluoro-5-isobutyl-2-(2H-tetrazol-5-yl)phen-yl]-2,3-dimethyl-piperazin-1-yl]-methyl]pyridazine], the IC50 in assay [1] was 13.9 nM. For the same molecule, in assay [2], the inhibition at 1 µM is less than 30% and the inhibition at 10 µM is less than 30%.

Regarding `CC(C)Cc1cc(F)c(-c2nn[nH]n2)c(N2CC3CC2CN3Cc2cccnn2)c1` (stereo not drawn) [Compound A-189, 2-[3-fluoro-5-isobutyl-2-(2H-tetrazol-5-yl)phen-yl]-5-(pyridazin-3-ylmethyl)-2,5-di-azabicyclo[2.2.1]-heptane], the half-maximal inhibitory concentration (IC50) in assay [1] stood at 2650 nM. In assay [2], the inhibition at 1 µM was less than 30% and the inhibition at 10 µM was less than 30%.

As for `CC(C)Cc1cc(F)c(-c2nn[nH]n2)c(N2CC3CCC(C2)N3Cc2cccnn2)c1` [Compound A-190, 3-[3-fluoro-5-isobutyl-2-(2H-tetrazol-5-yl)phen-yl]-8-(pyridazin-3-ylmethyl)-3,8-diaza-bicyclo[3.2.1]octane], the IC50 in assay [1] worked out at 1350 nM. Besides, in assay [2], the inhibition at 1 µM is less than 30% and the inhibition at 10 µM was less than 30%.

Turning to `CC(C)Cc1cc(F)c(-c2nn[nH]n2)c(N2CCN(Cc3cc(Cl)ccn3)CC2)c1` [Compound A-191, 1-[(4-chloro-2-pyridyl)methyl]-4-[3-fluoro-5-isobutyl-2-(2H-tetrazol-5-yl)phenyl]piperazine], the half-maximal inhibitory concentration (IC50) in assay [1] stood at 53.1 nM. For the same molecule, in assay [2], the inhibition at 1 µM is less than 30% and the inhibition at 10 µM was less than 30%.

On to `CC(C)Cc1cc(F)c(-c2nn[nH]n2)c(N2CCN(Cc3ccc(Cl)cn3)CC2)c1` [Compound A-192, 1-[(5-chloro-2-pyridyl)methyl]-4-[3-fluoro-5-isobutyl-2-(2H-tetrazol-5-yl)phenyl]piperazine], for which, in assay [1], the IC50 is 519 nM. Moreover, in assay [2], the inhibition at 1 µM was less than 30% and the inhibition at 10 µM is less than 30%.

For the molecule `CC(C)Cc1cc(F)c(-c2nn[nH]n2)c(N2CCN(Cc3ncccc3Cl)CC2)c1` [Compound A-193, 1-[(3-chloro-2-pyridyl)methyl]-4-[3-fluoro-5-isobutyl-2-(2H-tetrazol-5-yl)phenyl]piperazine], the IC50 in assay [1] was determined as 389 nM. For the same molecule, in assay [2], the inhibition at 1 µM was less than 30% and the inhibition at 10 µM is less than 30%.

For the molecule `COc1ccc(CN2CCN(c3cc(CC(C)C)cc(F)c3-c3nn[nH]n3)CC2)nc1` [Compound A-194, 1-[3-fluoro-5-isobutyl-2-(2H-tetrazol-5-yl)phenyl]-4-[(5-methoxy-2-pyridyl)methyl]piperazine], the IC50 in assay [1] worked out at 737 nM. Further, in assay [2], the inhibition at 1 µM was less than 30% and the inhibition at 10 µM is less than 30%.

In the case of `CC(C)Cc1cc(F)c(-c2nn[nH]n2)c(N2CCN(Cc3ccc(F)cn3)CC2)c1` [Compound A-195, 1-[3-fluoro-5-isobutyl-2-(2H-tetrazol-5-yl)phen-yl]-4-[(5-fluoro-2-pyridyl)methyl]-piperazine], the IC50 in assay [1] stood at 537 nM. Further, in assay [2], the inhibition at 1 µM is less than 30% and the inhibition at 10 µM was less than 30%.

Regarding `CC(C)Cc1cc(F)c(-c2nn[nH]n2)c(N2CCN(Cc3ncccc3F)CC2)c1` [Compound A-196, 1-[3-fluoro-5-isobutyl-2-(2H-tetrazol-5-yl)phen-yl]-4-[(3-fluoro-2-pyridyl)methyl]-piperazine], the IC50 in assay [1] stood at 631 nM. In addition, in assay [2], the inhibition at 1 µM is less than 30% and the inhibition at 10 µM was less than 30%.

For the molecule `Cc1cnc(CN2CCN(c3cc(CC(C)C)cc(F)c3-c3nn[nH]n3)CC2)c(C)c1` [Compound A-197, 1-[(3,5-dimethyl-2-pyridyl)methyl]-4-[3-fluoro-5-isobutyl-2-(2H-tetrazol-5-yl)phenyl]piperazine], the IC50 in assay [1] is 203 nM. In addition, in assay [2], the inhibition at 1 µM is less than 30% and the inhibition at 10 µM was less than 30%.

Take `COc1cccnc1CN1CCN(c2cc(CC(C)C)cc(F)c2-c2nn[nH]n2)CC1` [Compound A-198, 1-[3-fluoro-5-isobutyl-2-(2H-tetrazol-5-yl)phen-yl]-4-[(3-methoxy-2-pyridyl)meth-yl]piperazine]: in assay [1], the IC50 was determined as 1820 nM. Further, in assay [2], the inhibition at 1 µM is less than 30% and the inhibition at 10 µM is less than 30%.

For the molecule `COc1ccnc(CN2CCN(c3cc(CC(C)C)cc(F)c3-c3nn[nH]n3)CC2)c1` [Compound A-199, 1-[3-fluoro-5-isobutyl-2-(2H-tetrazol-5-yl)phen-yl]-4-[(4-methoxy-2-pyridyl)methyl]-piperazine], the IC50 in assay [1] amounted to 176 nM. For the same molecule, in assay [2], the inhibition at 1 µM was less than 30% and the inhibition at 10 µM was less than 30%.

As to `COc1c(C)cnc(CN2CCN(c3cc(CC(C)C)cc(F)c3-c3nn[nH]n3)CC2)c1C` [Compound A-200, 1-[3-fluoro-5-isobutyl-2-(2H-tetrazol-5-yl)phen-yl]-4-[(4-methoxy-3,5-dimethyl-2-pyridyl)methyl]-piperazine], the IC50 in assay [1] is 1060 nM. In addition, in assay [2], the inhibition at 1 µM is less than 30% and the inhibition at 10 µM was less than 30%.

With `Cc1ccc(CN2CCN(c3cc(CC(C)C)cc(F)c3-c3nn[nH]n3)CC2)nc1` [Compound A-201, 1-[3-fluoro-5-isobutyl-2-(2H-tetrazol-5-yl)phenyl]-4-[(5-methyl-2-pyridyl)methyl]piperazine], in assay [1], the IC50 is 650 nM. In addition, in assay [2], the inhibition at 1 µM is less than 30% and the inhibition at 10 µM was less than 30%.

Turning to `CC(C)Cc1cc(F)c(-c2nn[nH]n2)c(N2CCN(Cc3cc(C(F)(F)F)ccn3)CC2)c1` [Compound A-202, 1-[3-fluoro-5-isobutyl-2-(2H-tetrazol-5-yl)phenyl]-4-[[4-(trifluoromethyl)-2-pyridyl]methyl]piperazine], in assay [1], the IC50 is 824 nM. Further, in assay [2], the inhibition at 1 µM was less than 30% and the inhibition at 10 µM was less than 30%.

As for `Cc1cccnc1CN1CCN(c2cc(CC(C)C)cc(F)c2-c2nn[nH]n2)CC1` [Compound A-203, 1-[3-fluoro-5-isobutyl-2-(2H-tetrazol-5-yl)phen-yl]-4-[(3-methyl-2-pyridyl)methyl]-piperazine], the IC50 in assay [1] amounted to 155 nM. For the same molecule, in assay [2], the inhibition at 1 µM is less than 30% and the inhibition at 10 µM is less than 30%.

On to `Cc1ccnc(CN2CCN(c3cc(CC(C)C)cc(F)c3-c3nn[nH]n3)CC2)c1` [Compound A-204, 1-[3-fluoro-5-isobutyl-2-(2H-tetrazol-5-yl)phen-yl]-4-[(4-methyl-2-pyridyl)methyl]-piperazine], for which the IC50 in assay [1] turned out to be 212 nM. Moreover, in assay [2], the inhibition at 1 µM is less than 30% and the inhibition at 10 µM was less than 30%.

As for `CC(C)Cc1cc(F)c(-c2nn[nH]n2)c(N2CCN(Cc3ncc(Cl)cc3F)CC2)c1` [Compound A-205, 1-[(5-chloro-3-fluoro-2-pyridyl)methyl]-4-[3-fluoro-5-isobutyl-2-(2H-tetrazol-5-yl)phenyl]piperazine], in assay [1], the IC50 is 379 nM. Further, in assay [2], the inhibition at 1 µM was less than 30% and the inhibition at 10 µM was less than 30%.
